{"source": "patent US9169254B2", "about": "“Spiroimidazolone derivative” (Chugai Seiyaku Kabushiki Kaisha, priority 2009, dated 2015)"}
{"biological_target": "T1, human PTH1 receptor (Homo sapiens, UniProt Q03431)", "T1 sequence (Q03431 27-593)": "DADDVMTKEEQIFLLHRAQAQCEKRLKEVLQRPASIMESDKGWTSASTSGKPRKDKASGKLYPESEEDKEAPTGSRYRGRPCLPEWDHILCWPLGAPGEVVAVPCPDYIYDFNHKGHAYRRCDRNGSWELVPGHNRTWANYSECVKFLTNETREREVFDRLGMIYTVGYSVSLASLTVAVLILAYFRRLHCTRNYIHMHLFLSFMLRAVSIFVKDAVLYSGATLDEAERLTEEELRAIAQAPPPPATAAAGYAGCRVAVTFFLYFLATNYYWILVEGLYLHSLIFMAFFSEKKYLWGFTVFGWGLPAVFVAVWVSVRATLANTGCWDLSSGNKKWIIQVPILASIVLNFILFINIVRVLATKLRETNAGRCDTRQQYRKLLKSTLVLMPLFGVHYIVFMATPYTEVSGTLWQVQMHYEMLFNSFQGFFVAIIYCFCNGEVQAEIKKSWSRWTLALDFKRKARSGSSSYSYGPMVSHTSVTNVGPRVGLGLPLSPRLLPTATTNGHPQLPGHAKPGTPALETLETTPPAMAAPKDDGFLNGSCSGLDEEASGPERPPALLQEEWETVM", "assay": "In vitro cAMP signal activity in HKRK-B7 cells (LLC-PK1 cells overexpressing the human PTH1 receptor)", "assay_type": "cell-based", "conditions": "HKRK-B7 cells; compound at 1×10^−3 M; cAMP produced as percentage of that produced by hPTH(1-34) at 100 nM", "units": {"cAMP production activity (%)": "%"}}
{"smiles": "O=C1NC(C2CCCCC2)=NC12CCN(S(=O)(=O)CCc1cccc3c1ccn3C[C@H](O)[C@@H](O)CO)CC2", "note": "[Compound 1392, 2-Cyclohexyl-8-{2-[1-((2S,3S)-2,3,4-trihydroxy-butyl)-1H-indol-4-yl]-ethanesulfonyl}-1,3,8-triaza-spiro[4.5]dec-1-en-4-one]", "cAMP production activity (%)": 89}
{"smiles": "CC1CCC(C2=NC3(CCN(S(=O)(=O)/C=C/c4cccc(C#N)c4)CC3)C(=O)N2)CC1", "note": "(centres unmarked) [Compound 209, 3-{(E)-2-[2-(4-Methyl-cyclohexyl)-4-oxo-1,3,8-triaza-spiro[4.5]dec-1-ene-8-sulfonyl]-vinyl}-benzonitrile]", "cAMP production activity (%)": 24}
{"smiles": "Cc1cc(N(C)C(N)=O)cc(C)c1CCS(=O)(=O)N1CCC2(CC1)N=C([C@H]1CCC[C@@H](CCC(C)C)C1)NC2=O", "note": "[Compound 1146, 1-[3,5-dimethyl-4-(2-{2-[(1S,3S)-3-(3-methyl-butyl)-cyclohexyl]-4-oxo-1,3,8-triaza-spiro[4.5]dec-1-ene-8-sulfonyl}-ethyl)-phenyl]-1-methyl-urea]", "cAMP production activity (%)": 107}
{"smiles": "Cc1cc(C(=O)N2CCN(C)CC2)ccc1/C=C/S(=O)(=O)N1CCC2(CC1)N=C(c1cccc(C(F)(F)F)c1)NC2=O", "note": "[Compound 216, 8-{(E)-2-[2-methyl-4-(4-methyl-piperazine-1-carbonyl)-phenyl]-ethenesulfonyl}-2-(3-trifluoromethyl-phenyl)-1,3,8-triaza-spiro[4.5]dec-1-en-4-one]", "cAMP production activity (%)": 84}
{"smiles": "Cc1cc(C(=O)N2CCC(C)(O)CC2)cc(C)c1/C=C/S(=O)(=O)N1CCC2(CC1)N=C(c1ccc(OCC(F)(F)F)c(Cl)c1)NC2=O", "note": "[Compound 1216, 2-[3-chloro-4-(2,2,2-trifluoro-ethoxy)-phenyl]-8-{(E)-2-[4-(4-hydroxy-4-methyl-piperidine-1-carbonyl)-2,6-dimethyl-phenyl]-ethenesulfonyl}-1,3,8-triaza-spiro[4.5]dec-1-en-4-one]", "cAMP production activity (%)": 61}
{"smiles": "CC(=O)N(CC1(C)COC1)c1cc(C)c(/C=C/S(=O)(=O)N2CCC3(CC2)N=C(C2CCCCC2)NC3=O)c(C)c1", "note": "[Compound 574, N-{4-[(E)-2-(2-cyclohexyl-4-oxo-1,3,8-triaza-spiro[4.5]dec-1-ene-8-sulfonyl)-vinyl]-3,5-dimethyl-phenyl}-N-(3-methyl-oxetan-3-ylmethyl)-acetamide]", "cAMP production activity (%)": 42}
{"smiles": "[2H]C([2H])([2H])N(C(N)=O)c1cc(C)c(CCS(=O)(=O)N2CCC3(CC2)N=C(c2ccc(F)c(C(F)(F)F)c2)NC3=O)c(C)c1", "note": "[Compound 1391, 1-(4-{2-[2-(4-fluoro-3-trifluoromethyl-phenyl)-4-oxo-1,3,8-triaza-spiro[4.5]dec-1-ene-8-sulfonyl]-ethyl}-3,5-dimethyl-phenyl)-1-[1,1,1-^2H3]methyl-urea]", "cAMP production activity (%)": 116}
{"smiles": "O=C1NC(C2CCCCC2)=NC12CCCN(S(=O)(=O)c1cccc(Cl)c1)CC2", "note": "(centres unmarked) [Compound 70, 8-(3-Chloro-benzenesulfonyl)-2-cyclohexyl-1,3,8-triaza-spiro[4.6]undec-1-en-4-one]", "cAMP production activity (%)": 31}
{"smiles": "O=C1NC(C2CCCCC2)=NC12CCN(S(=O)(=O)c1csc3ccccc13)CC2", "note": "[Compound 53, 8-(benzo[b]thiophene-3-sulfonyl)-2-cyclohexyl-1,3,8-triaza-spiro[4.5]dec-1-en-4-one]", "cAMP production activity (%)": 33}
{"smiles": "CC(=O)Nc1cc(C)c(/C=C/S(=O)(=O)N2CCC3(CC2)N=C(C2CCCCC2)NC3=O)c(C)c1", "note": "[Compound 204, N-{4-[(E)-2-(2-Cyclohexyl-4-oxo-1,3,8-triaza-spiro[4.5]dec-1-ene-8-sulfonyl)-vinyl]-3,5-dimethyl-phenyl}-acetamide]", "cAMP production activity (%)": 110}
{"smiles": "O=C1NC(C2CCCCC2)=NC12CCN(S(=O)(=O)/C=C/c1cccc3c1ccn3CCN1CCOCC1)CC2", "note": "[Compound 192, 2-cyclohexyl-8-{(E)-2-[1-(2-morpholin-4-yl-ethyl)-1H-indol-4-yl]-ethenesulfonyl}-1,3,8-triaza-spiro[4.5]dec-1-en-4-one]", "cAMP production activity (%)": 52}
{"smiles": "Cc1cc(C(=O)N2CCCO2)cc(C)c1CCS(=O)(=O)N1CCC2(CC1)N=C(C1CCC(CCC(F)(F)F)CC1)NC2=O", "note": "(centres unmarked) [Compound 1181, 8-{2-[4-(isoxazolidine-2-carbonyl)-2,6-dimethyl-phenyl]-ethanesulfonyl}-2-[4-(3,3,3-trifluoro-propyl)-cyclohexyl]-1,3,8-triaza-spiro[4.5]dec-1-en-4-one]", "cAMP production activity (%)": 98}
{"smiles": "Cc1cc(C(=O)N2CCC(O)(CF)CC2)cc(C)c1CCS(=O)(=O)N1CCC2(CC1)N=C(c1ccc(C(F)(F)F)c(Cl)c1)NC2=O", "note": "[Compound 1278, 2-(3-chloro-4-trifluoromethyl-phenyl)-8-{2-[4-(4-fluoromethyl-4-hydroxy-piperidine-1-carbonyl)-2,6-dimethyl-phenyl]-ethanesulfonyl}-1,3,8-triaza-spiro[4.5]dec-1-en-4-one]", "cAMP production activity (%)": 95}
{"smiles": "Cc1oc(-c2ccccc2)nc1CC(=O)N1CCCC(C2=NC3(CCN(S(=O)(=O)CCc4cccc5ccccc45)CC3)C(=O)N2)C1", "note": "(centres unmarked) [Compound 434, 2-{1-[2-(5-methyl-2-phenyl-oxazol-4-yl)-acetyl]-piperidin-3-yl}-8-(2-naphthalen-1-yl-ethanesulfonyl)-1,3,8-triaza-spiro[4.5]dec-1-en-4-one]", "cAMP production activity (%)": 25}
{"smiles": "Cc1cc(N(C)C(N)=O)cc(C)c1/C=C/S(=O)(=O)N1CCC2(CC1)N=C(CCCCCCCCC1(C)COC1)NC2=O", "note": "[Compound 1023, 1-[3,5-Dimethyl-4-((E)-2-{2-[8-(3-methyl-oxetan-3-yl)-octyl]-4-oxo-1,3,8-triaza-spiro[4.5]dec-1-ene-8-sulfonyl}-vinyl)-phenyl]-1-methyl-urea]", "cAMP production activity (%)": 92}
{"smiles": "Cc1cc(N2C(=O)CNC2=O)cc(C)c1CCS(=O)(=O)N1CCC2(CC1)N=C(C1CCC(C(C)C)CC1)NC2=O", "note": "(centres unmarked) [Compound 884, 3-(4-{2-[2-(4-isopropyl-cyclohexyl)-4-oxo-1,3,8-triaza-spiro[4.5]dec-1-ene-8-sulfonyl]-ethyl}-3,5-dimethyl-phenyl)-imidazolidine-2,4-dione]", "cAMP production activity (%)": 59}
{"smiles": "Cc1cc(NS(N)(=O)=O)ccc1CCS(=O)(=O)N1CCC2(CC1)N=C(c1cccc(OC(F)(F)F)c1)NC2=O", "note": "[Compound 874, N-(3-methyl-4-{2-[4-oxo-2-(3-trifluoromethoxy-phenyl)-1,3,8-triaza-spiro[4.5]dec-1-ene-8-sulfonyl]-ethyl}-phenyl)-sulfamide]", "cAMP production activity (%)": 61}
{"smiles": "Cc1cc(N(C)C(N)=O)cc(C)c1CCS(=O)(=O)N1CCC2(CC1)N=C(C1C3CCCC1CCC3)NC2=O", "note": "(centres unmarked) [Compound 1053, 1-{4-[2-(2-bicyclo[3.3.1]non-9-yl-4-oxo-1,3,8-triaza-spiro[4.5]dec-1-ene-8-sulfonyl)-ethyl]-3,5-dimethyl-phenyl}-1-methyl-urea]", "cAMP production activity (%)": 70}
{"smiles": "O=C1NC(C2CCCCC2)=NC12CCN(S(=O)(=O)c1ccc(Br)s1)CC2", "note": "[Compound 65, 8-(5-bromo-thiophene-2-sulfonyl)-2-cyclohexyl-1,3,8-triaza-spiro[4.5]dec-1-en-4-one]", "cAMP production activity (%)": 65}
{"biological_target": "T1, human PTH1 receptor", "assay": "In vitro cAMP signal activity in HKRK-B7 cells (LLC-PK1 cells overexpressing the human PTH1 receptor)", "assay_type": "cell-based", "conditions": "HKRK-B7 cells; compound at 3×10^−4 M (* Compound 15); cAMP produced as percentage of that produced by hPTH(1-34) at 100 nM"}
{"smiles": "CC(=O)N1CCC(C2=NC3(CCN(S(=O)(=O)c4cccc(Cl)c4)CC3)C(=O)N2)CC1", "note": "[Compound 15, 2-(1-acetyl-piperidin-4-yl)-8-(3-chloro-benzenesulfonyl)-1,3,8-triaza-spiro[4.5]dec-1-en-4-one]", "cAMP production activity (%)": "1.8* %"}
